Measurements as given in US10150760B2, “Compounds for use in preparing heterocyclic triazole agonists of the APJ receptor” (AMGEN INC., priority 2016, dated 2018).
pEC50: −log10 of the molar value.

Biological target: human APJ receptor (Homo sapiens (Human), UniProt P35414)
Experiment: [35S]GTPγS binding assay on membranes from CHO cells stably expressing human APJ receptor
Format: biochemical
Settings: read-out: Activity hAPJ SPA EC50 IP
Method in brief: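 Membranes from CHO cells stably expressing human APJ incubated with ligand, 0.2 nM [35S]GTPγS and WGA SPA beads in HEPES pH 7.5 with 5 mM MgCl2, 200 mM NaCl, 3 μM GDP, 90 min at RT. Nonspecific binding defined with 100 μM GTPγS; EC50 by non-linear regression.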

Sequence of human APJ receptor (P35414 whole entry): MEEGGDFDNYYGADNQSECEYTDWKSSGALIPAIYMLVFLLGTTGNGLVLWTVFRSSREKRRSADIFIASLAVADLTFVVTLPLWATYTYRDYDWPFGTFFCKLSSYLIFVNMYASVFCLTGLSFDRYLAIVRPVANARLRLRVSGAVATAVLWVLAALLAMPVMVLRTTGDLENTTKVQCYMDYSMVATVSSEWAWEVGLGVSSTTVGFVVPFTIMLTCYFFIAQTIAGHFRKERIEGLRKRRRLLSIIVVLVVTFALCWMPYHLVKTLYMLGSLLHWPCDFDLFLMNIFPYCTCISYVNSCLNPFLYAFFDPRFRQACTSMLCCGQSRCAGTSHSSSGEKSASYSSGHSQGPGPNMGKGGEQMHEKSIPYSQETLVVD

Substance	pEC50
(1R,2S)-N-(4-([1,1′-bi(cyclopropyl)]-1-yl)-5-((2S)-1,4-dioxan-2-yl)-4H-1,2,4-triazol-3-yl)-1-(5-chloro-2-pyrimidinyl)-1-methoxy-2-propanesulfonamide or (1R,2S)-N-(4-([1,1′-bi(cyclopropyl)]-1-yl)-5-((2R)-1,4-dioxan-2-yl)-4H-1,2,4-triazol-3-yl)-1-(5-chloro-2-pyrimidinyl)-1-methoxy-2-propanesulfonamide [Example 325.0]	7.85
(1R,2S)-N-(4-([1,1′-bi(cyclopropyl)]-1-yl)-5-((2S)-1,4-dioxan-2-yl)-4H-1,2,4-triazol-3-yl)-1-(5-chloro-2-pyrimidinyl)-1-methoxy-2-propanesulfonamide or (1R,2S)-N-(4-([1,1′-bi(cyclopropyl)]-1-yl)-5-((2R)-1,4-dioxan-2-yl)-4H-1,2,4-triazol-3-yl)-1-(5-chloro-2-pyrimidinyl)-1-methoxy-2-propanesulfonamide [Example 326.0]	5.77
(1R,2S)-N-(5-((R)-1,4-dioxan-2-yl)-4-(1-(pyridin-3-yl)cyclopropyl)-4H-1,2,4-triazol-3-yl)-1-(5-chloropyrimidin-2-yl)-1-methoxypropane-2-sulfonamide or (1R,2S)-N-(5-((S)-1,4-dioxan-2-yl)-4-(1-(pyridin-3-yl)cyclopropyl)-4H-1,2,4-triazol-3-yl)-1-(5-chloropyrimidin-2-yl)-1-methoxypropane-2-sulfonamide [Example 295.0]	7.80
(1R,2S)-N-(5-((R)-1,4-dioxan-2-yl)-4-(1-(pyridin-3-yl)cyclopropyl)-4H-1,2,4-triazol-3-yl)-1-(5-chloropyrimidin-2-yl)-1-methoxypropane-2-sulfonamide or (1R,2S)-N-(5-((S)-1,4-dioxan-2-yl)-4-(1-(pyridin-3-yl)cyclopropyl)-4H-1,2,4-triazol-3-yl)-1-(5-chloropyrimidin-2-yl)-1-methoxypropane-2-sulfonamide [Example 296.0]	6.77
(1R,2S)-N-(5-((R)-2,3-dihydrobenzofuran-2-yl)-4-(4,6-dimethoxypyrimidin-5-yl)-4H-1,2,4-triazol-3-yl)-1-methoxy-1-(5-methylpyrimidin-2-yl)propane-2-sulfonamide or (1R,2S)-N-(5-((S)-2,3-dihydrobenzofuran-2-yl)-4-(4,6-dimethoxypyrimidin-5-yl)-4H-1,2,4-triazol-3-yl)-1-methoxy-1-(5-methylpyrimidin-2-yl)propane-2-sulfonamide [Example 233.0]	5.90
(1R,2S)-N-(5-((R)-2,3-dihydrobenzofuran-3-yl)-4-(2,6-dimethoxyphenyl)-4H-1,2,4-triazol-3-yl)-1-methoxy-1-(5-methylpyrimidin-2-yl)propane-2-sulfonamide or (1R,2S)-N-(5-((S)-2,3-dihydrobenzofuran-3-yl)-4-(2,6-dimethoxyphenyl)-4H-1,2,4-triazol-3-yl)-1-methoxy-1-(5-methylpyrimidin-2-yl)propane-2-sulfonamide [Example 238.0]	6.09
(1R,2S)-N-(5-((R)-2,3-dihydrobenzofuran-3-yl)-4-(2,6-dimethoxyphenyl)-4H-1,2,4-triazol-3-yl)-1-methoxy-1-(5-methylpyrimidin-2-yl)propane-2-sulfonamide or (1R,2S)-N-(5-((S)-2,3-dihydrobenzofuran-3-yl)-4-(2,6-dimethoxyphenyl)-4H-1,2,4-triazol-3-yl)-1-methoxy-1-(5-methylpyrimidin-2-yl)propane-2-sulfonamide [Example 239.0]	7.48
(1S,2S)-1-(5-chloropyrimidin-2-yl)-1-isopropoxy-N-(4-(1-(methoxymethyl)cyclopropyl)-5-((R)-tetrahydrofuran-3-yl)-4H-1,2,4-triazol-3-yl)propane-2-sulfonamide or (1S,2S)-1-(5-chloropyrimidin-2-yl)-1-isopropoxy-N-(4-(1-(methoxymethyl)cyclopropyl)-5-((S)-tetrahydrofuran-3-yl)-4H-1,2,4-triazol-3-yl)propane-2-sulfonamide [Example 319.0]	6.89
(1S,2S)-1-(5-chloropyrimidin-2-yl)-1-isopropoxy-N-(4-(1-(methoxymethyl)cyclopropyl)-5-((R)-tetrahydrofuran-3-yl)-4H-1,2,4-triazol-3-yl)propane-2-sulfonamide or (1S,2S)-1-(5-chloropyrimidin-2-yl)-1-isopropoxy-N-(4-(1-(methoxymethyl)cyclopropyl)-5-((S)-tetrahydrofuran-3-yl)-4H-1,2,4-triazol-3-yl)propane-2-sulfonamide [Example 320.0]	7.35
(1S,2S)-1-isopropoxy-1-(5-methylpyrazin-2-yl)-N-(4-(tetrahydro-2H-pyran-4-yl)-5-((R)-tetrahydrofuran-2-yl)-4H-1,2,4-triazol-3-yl)propane-2-sulfonamide or (1S,2S)-1-isopropoxy-1-(5-methylpyrazin-2-yl)-N-(4-(tetrahydro-2H-pyran-4-yl)-5-((S)-tetrahydrofuran-2-yl)-4H-1,2,4-triazol-3-yl)propane-2-sulfonamide [Example 260.0]	< 5.38
(1S,2S)-1-isopropoxy-1-(5-methylpyrazin-2-yl)-N-(4-(tetrahydro-2H-pyran-4-yl)-5-((R)-tetrahydrofuran-2-yl)-4H-1,2,4-triazol-3-yl)propane-2-sulfonamide or (1S,2S)-1-isopropoxy-1-(5-methylpyrazin-2-yl)-N-(4-(tetrahydro-2H-pyran-4-yl)-5-((S)-tetrahydrofuran-2-yl)-4H-1,2,4-triazol-3-yl)propane-2-sulfonamide [Example 261.0]	6.82
(1S,2S)-1-isopropoxy-1-(5-methylpyrazin-2-yl)-N-(5-((2S,5S)-5-methyltetrahydrofuran-2-yl)-4-(tetrahydro-2H-pyran-4-yl)-4H-1,2,4-triazol-3-yl)propane-2-sulfonamide or (1S,2S)-1-isopropoxy-1-(5-methylpyrazin-2-yl)-N-(5-((2R,5R)-5-methyltetrahydrofuran-2-yl)-4-(tetrahydro-2H-pyran-4-yl)-4H-1,2,4-triazol-3-yl)propane-2-sulfonamide [Example 262.0]	< 5.38
(1S,2S)-1-isopropoxy-1-(5-methylpyrazin-2-yl)-N-(5-((2S,5S)-5-methyltetrahydrofuran-2-yl)-4-(tetrahydro-2H-pyran-4-yl)-4H-1,2,4-triazol-3-yl)propane-2-sulfonamide or (1S,2S)-1-isopropoxy-1-(5-methylpyrazin-2-yl)-N-(5-((2R,5R)-5-methyltetrahydrofuran-2-yl)-4-(tetrahydro-2H-pyran-4-yl)-4H-1,2,4-triazol-3-yl)propane-2-sulfonamide [Example 263.0]	6.34

Next, values leading:

pEC50	Substance
5.92	(1R,2S)-N-(5-((S)-1,4-dioxan-2-yl)-4-(1-(methoxymethyl)cyclopropyl)-4H-1,2,4-triazol-3-yl)-1-(5-chloropyrimidin-2-yl)-1-methoxypropane-2-sulfonamide or (1R,2S)-N-(5-((R)-1,4-dioxan-2-yl)-4-(1-(methoxymethyl)cyclopropyl)-4H-1,2,4-triazol-3-yl)-1-(5-chloropyrimidin-2-yl)-1-methoxypropane-2-sulfonamide [Example 341.0]
7.04	(1S,2S)-1-(5-chloro-2-pyrimidinyl)-N-(4-(1,3-dimethoxy-2-propanyl)-5-((2R,5R)-5-methyltetrahydro-2-furanyl)-4H-1,2,4-triazol-3-yl)-1-(2-propanyloxy)-2-propanesulfonamide or (1S,2S)-1-(5-chloro-2-pyrimidinyl)-N-(4-(1,3-dimethoxy-2-propanyl)-5-((2S,5S)-5-methyltetrahydro-2-furanyl)-4H-1,2,4-triazol-3-yl)-1-(2-propanyloxy)-2-propanesulfonamide [Example 354.0]
8.92	(1S,2S)-1-(5-chloro-2-pyrimidinyl)-N-(4-(1,3-dimethoxy-2-propanyl)-5-((2R,5R)-5-methyltetrahydro-2-furanyl)-4H-1,2,4-triazol-3-yl)-1-(2-propanyloxy)-2-propanesulfonamide or (1S,2S)-1-(5-chloro-2-pyrimidinyl)-N-(4-(1,3-dimethoxy-2-propanyl)-5-((2S,5S)-5-methyltetrahydro-2-furanyl)-4H-1,2,4-triazol-3-yl)-1-(2-propanyloxy)-2-propanesulfonamide [Example 355.0]
5.83	(1S,2S)-1-(5-chloro-2-pyrimidinyl)-N-(4-cyclopropyl-5-((2S,5S)-5-methyltetrahydro-2-furanyl)-4H-1,2,4-triazol-3-yl)-1-(2-propanyloxy)-2-propanesulfonamide or (1S,2S)-1-(5-chloro-2-pyrimidinyl)-N-(4-cyclopropyl-5-((2R,5R)-5-methyltetrahydro-2-furanyl)-4H-1,2,4-triazol-3-yl)-1-(2-propanyloxy)-2-propanesulfonamide [Example 352.0]
7.00	(1S,2S)-1-(5-chloro-2-pyrimidinyl)-N-(4-cyclopropyl-5-((2S,5S)-5-methyltetrahydro-2-furanyl)-4H-1,2,4-triazol-3-yl)-1-(2-propanyloxy)-2-propanesulfonamide or (1S,2S)-1-(5-chloro-2-pyrimidinyl)-N-(4-cyclopropyl-5-((2R,5R)-5-methyltetrahydro-2-furanyl)-4H-1,2,4-triazol-3-yl)-1-(2-propanyloxy)-2-propanesulfonamide [Example 353.0]
6.51	(1S,2S)-N-(4-(1,3-dimethoxy-2-propanyl)-5-((2R,5R)-5-methyltetrahydro-2-furanyl)-4H-1,2,4-triazol-3-yl)-1-(5-fluoro-2-pyrimidinyl)-1-(2-propanyloxy)-2-propanesulfonamide or (1S,2S)-N-(4-(1,3-dimethoxy-2-propanyl)-5-((2S,5S)-5-methyltetrahydro-2-furanyl)-4H-1,2,4-triazol-3-yl)-1-(5-fluoro-2-pyrimidinyl)-1-(2-propanyloxy)-2-propanesulfonamide [Example 360.0]
